This passage reports logP results from the OPERA property sets (Mansouri et al. 2018).

As a reminder, the logP is a log measure of how a compound divides between an organic and an aqueous phase. A low value points to a more hydrophilic compound. As to `ClC1CC2CCC1C2` (stereo unspecified), the logP amounted to 3.35.

`C1C2C3C2C2C1C32` (stereo unspecified) had a logP of 2.9.

`OC1C2CCC(C2)C1O` (stereo unspecified) displayed a logP of 0.4.

As to `OC1CC2CCC1C2` (stereo unspecified), the logP was 1.45.

In the case of `C1CC2CCC1C2`, the logP was found to be 3.78.

Molecule `OCC1CC2CCC1C2` (stereo unspecified) came in with a logP of 1.99.

Take `BrC1C2CC3C(C2)C13` (stereo unspecified): the logP was 3.11.

In turn, `OC1CC2CCC1C2O` (stereo unspecified) showed a logP of 0.4.

Take `C1=CC2C=CC1C2`: the logP is 2.67.

Molecule `C1CC2CC1C1OC21` (stereo unspecified) came in with a logP of 1.58.

`C1=CC2CCC1C2` came in with a logP of 3.24.

`OC(C1CC1)C1CC1` had a logP of 1.07.

The molecule `OC1C2CC3C1C3C2O` (stereo unspecified) came in with a logP of -0.42.

For the molecule `BrC1CC2CCC1C2` (stereo unspecified), the logP turned out to be 3.54.

In the case of `OC1CC2C=CC1C2` (stereo unspecified), the logP is 0.99.

As to `O=C1C2CC3C(C2)C13`, the logP worked out at 0.81.
